# Where a name gives a salt, the structure may show the parent alone.
# Target: human β2 adrenergic receptor (Homo sapiens, UniProt P07550)
# Experiment: cell-based
# Conditions: not given
# Method: The activity of the test compounds on human β-adrenergic receptors was determined with Chinese hamster ovary (CHO) cells transfected with human β2, or β1 adrenergic receptors. Agonist activity is indicated by increased cAMP levels in the CHO cells. Selectivity of the test compounds for the β3 receptor was assessed by comparison with results in β2 and β1 adrenergic receptor transfected cells.
# 1). Chinese hamster ovary (CHO) cells transfected with human β2, or β1 adrenergic receptors were used in the assay.
# 2). Cells were grown to confluent conditions in 24 well plates.
# 3). Drugs were dissolved in DMSO at a concentration of 10 μM.
# 4). Cells were incubated with drug at 10 nM concentration for 10 min at 37° C.
# 5). Cell cAMP concentrations were assayed using a scintillation proximity assay kit from Amersham Corp., Chicago, Ill.
# 6). Activities for the test compounds are expressed as a percentage of the isoproterenol response.
# Production of the CHO cells transfected with human β2, or β1 adrenergic receptors, and compound test procedures utilizing the CHO cells, are described by Emorine et al. in their article "Molecular Characterization of the Human Beta3 -Adrenergic Receptor", Science 1989, 245(8), 1118-1121 and by Muzzin et al. in the article "An Adipose Tissue-Specific Beta3 -Adrenergic Receptor", J. Biol. Chem.1991, 266, 24053-24058.
# ^a Human β receptors expressed in Chinese hamster ovary cells,
# compounds tested at 10 nM, results expressed as % of isoproterenol
# activity (increase in cAMP) at 10 μM. EC50 (μM) values
# determined for selected compounds.
# Chain of human β2 adrenergic receptor (P07550 whole entry): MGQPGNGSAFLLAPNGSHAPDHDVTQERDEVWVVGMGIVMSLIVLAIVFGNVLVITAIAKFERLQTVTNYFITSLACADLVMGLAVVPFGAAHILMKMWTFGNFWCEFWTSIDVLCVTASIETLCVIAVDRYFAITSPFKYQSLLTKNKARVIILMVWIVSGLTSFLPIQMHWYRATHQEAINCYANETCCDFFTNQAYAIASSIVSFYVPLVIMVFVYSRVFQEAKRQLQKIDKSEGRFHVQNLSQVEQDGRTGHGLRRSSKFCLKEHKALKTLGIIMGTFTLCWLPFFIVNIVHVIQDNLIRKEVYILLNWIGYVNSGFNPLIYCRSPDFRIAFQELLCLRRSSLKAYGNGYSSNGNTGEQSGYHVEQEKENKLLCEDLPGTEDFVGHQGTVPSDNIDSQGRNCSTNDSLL
row,Structure (SMILES),EC50
1,"CC(Cc1ccc2c(c1)OC(C(=O)O)(C(=O)OCC1CC1)O2)NCC(O)c1cccc(Cl)c1 (centres unmarked) [Example 69, 5-{2-[2-(3-Chloro-phenyl)-2-hydroxy-ethylamino]-propyl}-benzo[1,3]dioxole-2,2-dicarboxylic acid cyclopropylmethyl ester]",0.079 µM

# Same assay, conditions: 10 min; compounds tested at 10 nM, isoproterenol at 10 μM; CHO cells, 10 min at 37° C; read-out: β2: % of isoproterenol activity (increase in cAMP)
row,activation at 0.01 µM,Structure (SMILES)
1,0%,"CCC(=O)OC(C)OC(=O)C1(C(=O)OC(C)OC(=O)CC)Oc2ccc(CC(C)NCC(O)c3cccc(Cl)c3)cc2O1 (centres unmarked) [Example 51, 5-{2-[2-(3-Chloro-phenyl)-2-hydroxyethylamino]propyl}benzo[1,3] dioxole-2,2-dicarboxylic acid bis-(1-propionyloxy-ethyl) ester]"
2,2%,CC(Cc1ccc2c(c1)OC(C(=O)OC(C)OC(=O)C(C)(C)C)(C(=O)OC(C)OC(=O)C(C)(C)C)O2)NCC(O)c1cccc(Cl)c1 (centres unmarked) [Example 52]
3,2%,"CC(Cc1ccc2c(c1)OC(C(=O)OCOC(=O)CC(C)(C)C)(C(=O)OCOC(=O)CC(C)(C)C)O2)NCC(O)c1cccc(Cl)c1 (centres unmarked) [Example 53, 5-{2-[2-(3-Chloro-phenyl)-2-hydroxyethylamino]propyl}benzo[1,3] dioxole-2,2-dicarboxylic acid bis-(3,3-dimethyl-butyryloxymethyl) ester]"
4,7%,CC(Cc1ccc2c(c1)OC(C(=O)OC(C)OC(=O)CC(C)(C)C)(C(=O)OC(C)OC(=O)CC(C)(C)C)O2)NCC(O)c1cccc(Cl)c1 (centres unmarked) [Example 54]
5,0%,"CC(Cc1ccc2c(c1)OC(C(=O)OCOC(=O)CCC1CCCC1)(C(=O)OCOC(=O)CCC1CCCC1)O2)NCC(O)c1cccc(Cl)c1 (centres unmarked) [Example 55, 5-{2-[2-(3-Chloro-phenyl)-2-hydroxy-ethylamino]propyl}benzo[1,3]dioxole-2,2-dicarboxylic acid bis-(3-cyclopentyl-propionyloxymethyl) ester]"
6,8%,"CC(Cc1ccc2c(c1)OC(C(=O)OCOC(=O)c1ccccc1)(C(=O)OCOC(=O)c1ccccc1)O2)NCC(O)c1cccc(Cl)c1 (centres unmarked) [Example 56, 5-{2-[2-(3-Chloro-phenyl)-2-hydroxy-ethylamino]propyl}benzo[1,3]dioxole-2,2-dicarboxylic acid bis-benzoyloxymethyl ester]"
7,0%,"CC(Cc1ccc2c(c1)OC(C(=O)OC(C)OC(=O)c1ccccc1)(C(=O)OC(C)OC(=O)c1ccccc1)O2)NCC(O)c1cccc(Cl)c1 (centres unmarked) [Example 57, 5-{2-[2-(3-Chloro-phenyl)-2-hydroxyethylamino]propyl}benzo[1,3] dioxole-2,2-dicarboxylic acid bis-(benzoyloxy-ethyl) ester]"
8,8%,"CCC(C)(C)C(=O)OCOC(=O)C1(C(=O)OCOC(=O)C(C)(C)CC)Oc2ccc(CC(C)NCC(O)c3cccc(Cl)c3)cc2O1 (centres unmarked) [Example 58, 5-{2-[2-(3-Chloro-phenyl)-2-hydroxyethylamino]propyl}benzo[1,3] dioxole-2,2-dicarboxylic acid bis-(2,2-dimethyl-butyryloxymethyl) ester]"
9,10%,"CC(OC(=O)OC1CCCCC1)OC(=O)C1(C(=O)OC(C)OC(=O)OC2CCCCC2)Oc2ccc(C[C@@H](C)NC[C@H](O)c3cccc(Cl)c3)cc2O1 (stereo partly drawn) [Example 59, 5-{(2R)-2-[(2R)-2-(3-Chloro-phenyl)-2-hydroxy-ethylamino]-propyl}-benzo[1,3]dioxole-2,2-dicarboxylic acid bis-[1-(cyclohexyloxycarbonyloxy)-ethyl] ester]"
10,3%,CC(Cc1ccc2c(c1)OC(C(=O)O)(C(=O)O)O2)N1COC(c2cccc(Cl)c2)C1 (centres unmarked) [Example 66]
11,5%,"CCN(CC)C(=O)COC(=O)C1(C(=O)OCC(=O)N(CC)CC)Oc2ccc(C[C@@H](C)NC[C@H](O)c3cccc(Cl)c3)cc2O1 [Example 68, 5-{(2R)-2-[(2R)-2-(3-Chloro-phenyl)-2-hydroxy-ethylamino]-propyl}-benzo[1,3]dioxole-2,2-dicarboxylic acid bis-diethylcarbamoylmethyl ester]"
12,13%,"CC(Cc1ccc2c(c1)OC(C(=O)O)(C(=O)OCCc1ccsc1)O2)NCC(O)c1cccc(Cl)c1 (centres unmarked) [Example 72, 5-{2-[2-(3-Chloro-phenyl)-2-hydroxy-ethylamino]-propyl}-benzo[1,3]dioxole-2,2-dicarboxylic acid 2-(3-Thienyl)ethyl ester]"
13,0%,"CC(Cc1ccc2c(c1)OC(C(=O)OCCCl)(C(=O)OCCCl)O2)NCC(O)c1cccc(Cl)c1 (centres unmarked) [Example 73, 5-{2-[2-(3-Chloro-phenyl)-2-hydroxy-ethylamino]-propyl}-benzo[1,3]dioxole-2,2-dicarboxylic acid bis 2-(Chloro)ethyl ester]"
14,0%,"CCC(CC)COC(=O)C1(C(=O)OCC(CC)CC)Oc2ccc(C[C@@H](C)NC[C@H](O)c3cccc(Cl)c3)cc2O1 [Example 74, 5-{(2R)-2-[(2R)-2-(3-Chloro-phenyl)-2-hydroxy-ethylamino]-propyl}-benzo[1,3]dioxole-2,2-dicarboxylic acid bis-(2-ethylbutyl) ester]"
15,5%,"C[C@H](Cc1ccc2c(c1)OC(C(=O)OCC13CC4CC(CC(C4)C1)C3)(C(=O)OCC13CC4CC(CC(C4)C1)C3)O2)NC[C@H](O)c1cccc(Cl)c1 (stereo partly drawn) [Example 77, 5-{(2R)-2-[(2R)-2-(3-Chloro-phenyl)-2-hydroxy-ethylamino]-propyl}-benzo[1,3]dioxole-2,2-dicarboxylic acid bis-adamantan-1-ylmethyl ester]"
16,0%,"C[C@H](Cc1ccc2c(c1)OC(C(=O)O)(C(=O)OCC13CC4CC(CC(C4)C1)C3)O2)NC[C@H](O)c1cccc(Cl)c1 (stereo partly drawn) [Example 79, 5-{(2R)-2-[(2R)-2-(3-Chloro-phenyl)-2-hydroxy-ethylamino]-propyl}-benzo[1,3]dioxole-2,2-dicarboxylic acid adamantan-1-ylmethyl ester]"
17,7%,"C[C@H](Cc1ccc2c(c1)OC(C(=O)OCC1CCCCO1)(C(=O)OCC1CCCCO1)O2)NC[C@H](O)c1cccc(Cl)c1 (stereo partly drawn) [Example 90, 5-{(2R)-2-[(2R)-2-(3-Chloro-phenyl)-2-hydroxy-ethylamino]-propyl}-benzo[1,3]dioxole-2,2-dicarboxylic aicd bis-(tetrahydro-pyran-2-ylmethyl) ester]"
18,7%,"C[C@H](Cc1ccc2c(c1)OC(C(=O)OCC1CCCO1)(C(=O)OCC1CCCO1)O2)NC[C@H](O)c1cccc(Cl)c1 (stereo partly drawn) [Example 91, 5-{(2R)-2-[(2R)-2-(3-Chloro-phenyl)-2-hydroxy-ethylamino]-propyl}-benzo[1,3]dioxole-2,2-dicarboxylic aicd bis-(tetrahydro-furan-2-ylmethyl) ester]"
19,7%,"C=CCOC(=O)C1(C(=O)OCC=C)Oc2ccc(C[C@@H](C)NC[C@H](O)c3cccc(Cl)c3)cc2O1 [Example 98, 5-{(2R)-2-[(2R)-2-(3-Chloro-phenyl)-2-hydroxy-ethylamino]-propyl}-benzo[1,3]dioxole-2,2-dicarboxylic acid diallyl ester]"
20,16%,"C[C@H](Cc1ccc2c(c1)OC(C(=O)OCC=Cc1ccccc1)(C(=O)OCC=Cc1ccccc1)O2)NC[C@H](O)c1cccc(Cl)c1 (stereo partly drawn) [Example 99, 5-{(2R)-2-[(2R)-2-(3-Chloro-phenyl)-2-hydroxy-ethylamino]-propyl}-benzo[1,3]dioxole-2,2-dicarboxylic acid bis-(3-phenyl-allyl)ester]"
21,2%,"C[C@H](Cc1ccc2c(c1)OC(C(=O)OC1CCCCCCC1)(C(=O)OC1CCCCCCC1)O2)NC[C@H](O)c1cccc(Cl)c1 [Example 100, 5-{(2R)-2-[(2R)-2-(3-Chloro-phenyl)-2-hydroxy-ethylamino]-propyl}-benzo[1,3]dioxole-2,2-dicarboxylic acid dicyclooctyl ester]"

# Same assay, conditions: CHO, 10 min, read-out: β2: % of isoproterenol activity (increase in cAMP)
row,Structure (SMILES),activation at 0.01 µM
1,"CC(Cc1ccc2c(c1)OC(C(N)=O)(C(N)=O)O2)NCC(O)c1cccc(Cl)c1 (centres unmarked) [Example 60, 5-{2-[2-(3-Chloro-phenyl)-2-hydroxy-ethylamino]-propyl}benzo[1,3]dioxole-2,2-dicarboxylic acid bis-amide]",3%
2,"CCOCCOC(=O)C1(C(=O)O)Oc2ccc(C[C@@H](C)NC[C@H](O)c3cccc(Cl)c3)cc2O1 (stereo partly drawn) [Example 95, 5-{(2R)-2-[(2R)-2-(3-Chloro-phenyl)-2-hydroxy-ethylamino]-propyl}-benzo[1,3]dioxole-2,2-dicarboxylic acid (2-ethoxy-ethyl) ester]",0%
3,"C[C@H](Cc1ccc2c(c1)OC(C(=O)OCCc1cccc(Br)c1)(C(=O)OCCc1cccc(Br)c1)O2)NC[C@H](O)c1cccc(Cl)c1 [Example 96, 5-{(2R)-2-[(2R)-2-(3-Chloro-phenyl)-2-hydroxy-ethylamino]-propyl}-benzo[1,3]dioxole-2,2-dicarboxylic acid bis-[2-(3-bromo-phenyl)-ethyl]ester hydrochloride salt]",1%
4,"Cc1cccc(CCOC(=O)C2(C(=O)OCCc3cccc(C)c3)Oc3ccc(C[C@@H](C)NC[C@H](O)c4cccc(Cl)c4)cc3O2)c1 [Example 97, 5-{(2R)-2-[(2R)-2-(3-Chloro-phenyl)-2-hydroxy-ethylamino]-propyl}-benzo[1,3]dioxole-2,2-dicarboxylic acid bis-(2-m-tolyl-ethyl) ester hydrochloride salt]",4%

# From patent US5914339A, “Substituted 1,3-benzodioxoles” (American Home Products Corporation, priority 1997, dated 1999)
